# Patent publication US10674724B2, “Method of activating immune response in plants” (priority 2012, dated 2020)
# Columns and labels:
# NPR1 [1] = biological target: T1, NPR1 (Arabidopsis thaliana, UniProt P93002); assay: classical non-equilibrium solid-phase [14C]SA binding; settings: radiolabeled SA, washes to remove unbound ligand
# T1 construct: made in house; host or cells: E. coli
# Protocol: To test whether NPR1 can bind SA directly, a classic method to assess Kd values was used, which involved coupling NPR1 to a solid phase and incubating it with radiolabeled SA, followed by washes to remove unbound ligand and counting the amount of ligand bound to NPR1.
# NPR1 [2] = biological target: T1, NPR1; assay type: binding; settings: equilibrium dialysis
# Protocol: Given the dissociation reaction:
# The data was analyzed by non-linear regression using GraphPad PRISM 4 and fitted to a one-site-binding rectangular hyperbola.
# NPR1 [3] = biological target: T1, NPR1; assay: Sephacryl S300 gel filtration of Strep-tagged NPR1; assay type: biochemical
# Protocol: (§1) Strep-tagged purified proteins in a final volume of 2 ml were subjected to gel filtration analysis on the Sephacryl S100 HR or Sephacryl S300 HR packed in 50 cm long HR 16 columns (GE Health) and equilibrated with S300 chromatography buffer (50 mM HEPES, pH 7.4, 250 mM NaCl. Elutions, in 0.5 ml fractions, were performed in the same buffer at a flow rate of 0.8 ml/min. Where indicated, proteins were incubated with 1 mM SA, 1 mM catechol, 1 mM 4-hydroxy benzoic acid, or 1 mM methyl-salicylate at room temperature for 30 min prior to chromatography as described above with the exception that the chromatography buffer was supplemented with 1 mM SA, 1 mM catechol, 1 mM 4-hydroxy benzoic acid, or 1 mM methyl-salicylate, respectively. In the case of the EDTA treatment, NPR1 was stripped of its metal by a 50 mM EDTA treatment of 30 min, followed by an incubation of 30 min with 1 mM SA prior to gel filtration. In this case, the chromatography buffer was supplemented with 1 mM SA.
# Δ513 = biological target: T2, Δ513 (Arabidopsis thaliana, UniProt P93002); assay: Sephacryl S100 gel filtration of Strep-tagged Δ513; assay type: biochemical; settings: 1 mM SA
# T2 construct: made in house; host or cells: E. coli
# T2 sequence (P93002 513-593): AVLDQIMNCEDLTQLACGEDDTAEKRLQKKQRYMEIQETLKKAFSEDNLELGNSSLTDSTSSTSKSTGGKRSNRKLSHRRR
# Protocol: as §1
# [4] = tested on: transcription activity of Δ513; assay: in vivo plant transcription assay, Δ513:DB co-expressed with BTB/POZ; assay type: cell-based, Arabidopsis thaliana; settings: 1 mM salicylic acid in medium
# Protocol: (§2) Arabidopsis thaliana (Columbia) leaves were harvested from four-week-old plants grown at 21° C. (day) and 18° C. (night) with a ten-hour photoperiod and transferred to Petri dishes containing MS salts and micronutrients supplemented with B5 vitamins, 1% sucrose and 0.8% agar at a pH of 5.8. […] Coating of the gold particles and general procedures and preparation of the biolistic experiments were as per the manufacturer's instructions (Bio-Rad). After bombardment, leaves were kept in the conditions described above for a period of 24 hours before assaying. Enzyme assays were performed using the Dual-Luciferase Reporter Assay® system (Promega) following the manufacturer's instructions. Luminescence was measured on a Berthold Lumat LB9507 Luminometer (Bad Wildbad, Germany) and the data obtained represented the value of the reporter gene divided by the value of the internal standard and expressed as Relative Luciferase Units. To increase signal-to-noise ratio in some experiments, qPCR was performed to measure the amount of Firefly and Renilla Luciferases mRNA. The data was reported as Relative Expression and represented the value of the reporter mRNA divided by the value of the internal standard mRNA. The ratio obtained for Ga14 DB was assigned an arbitrary value of 1. […]
# It was then determined whether or not the BTB/POZ could modulate the transcriptional properties of Δ513 (FIG. 5F). […]
# BTB/POZ-Δ513 interaction [5] = biological target: T3, BTB/POZ-Δ513 interaction (Arabidopsis thaliana, UniProt P93002); assay: BTB/POZ-Δ513 pull-down assay; assay type: biochemical; parameters: made in house; host or cells: E. coli; settings: 1 mM SA
# T3 sequence (P93002 513-593): T2 sequence (P93002 513-593)
# Protocol: The BTB/POZ (amino acids 1-190 of NPR1) was expressed in E. coli as a C-terminal fusion to the Strep-Tag according to standard protocols. The Δ513 of NPR1 was expressed as an N-terminal fusion to the HA-Tag as described above. The VLRSgt (as described in Hall et al. (2007) Plant J 49, 579-591) was expressed in E. coli as an N-terminal fusion to the GST-Tag according to standard protocols. The pull-down assay was performed in the Strep-Tactin buffer. The antibodies used for detecting the tags in the BTB/POZ-Strep was from Qiagen (catalog #34850) and those used for the tags in HA-Δ513 or the GST-VLRSgt were from Santa Cruz Biotechnology (catalog #: sc-7392 and sc-138).
# Given that the plant two-hybrid system is an in vivo method of analysis, an indirect effect of SA on the interaction of the BTB/POZ and the C-terminus of NPR1 cannot be ruled out. Thus, the interaction in vitro in a pull-down assay (FIG. 8) was tested. […] As negative controls, first an unrelated protein (VLRSgt) was shown not to interact with BTB/POZ (FIG. 5D) and secondly Δ513 was shown not to interact with the solid support in the absence of BTB/POZ (FIG. 5E).
# BTB/POZ-Δ513 interaction [6] = biological target: T3, BTB/POZ-Δ513 interaction; assay: in vivo plant two-hybrid assay; assay type: cell-based; parameters: expressed in transfected cells; host or cells: Arabidopsis thaliana (Columbia) leaves, biolistic bombardment; settings: 1 mM salicylic acid in medium, reporter mRNA
# Protocol: as §2, with “mRNA.” for “mRNA. The data was reported as Relative Expression and represented the value of the reporter mRNA divided by the value of the internal standard mRNA. The ratio obtained for Ga14 DB was assigned an arbitrary value of 1.”
# Since BTB/POZ domains can be autoinhibitory, it was determined whether or not the NPR1 BTB/POZ can interact with the NPR1 transactivation domain. […] Here the reporter gene was monitored through its mRNA as opposed to its enzyme activity, which provided a greater signal-to-noise ratio (see Experimental Procedures). […]
# T1 sequence (P93002 whole entry): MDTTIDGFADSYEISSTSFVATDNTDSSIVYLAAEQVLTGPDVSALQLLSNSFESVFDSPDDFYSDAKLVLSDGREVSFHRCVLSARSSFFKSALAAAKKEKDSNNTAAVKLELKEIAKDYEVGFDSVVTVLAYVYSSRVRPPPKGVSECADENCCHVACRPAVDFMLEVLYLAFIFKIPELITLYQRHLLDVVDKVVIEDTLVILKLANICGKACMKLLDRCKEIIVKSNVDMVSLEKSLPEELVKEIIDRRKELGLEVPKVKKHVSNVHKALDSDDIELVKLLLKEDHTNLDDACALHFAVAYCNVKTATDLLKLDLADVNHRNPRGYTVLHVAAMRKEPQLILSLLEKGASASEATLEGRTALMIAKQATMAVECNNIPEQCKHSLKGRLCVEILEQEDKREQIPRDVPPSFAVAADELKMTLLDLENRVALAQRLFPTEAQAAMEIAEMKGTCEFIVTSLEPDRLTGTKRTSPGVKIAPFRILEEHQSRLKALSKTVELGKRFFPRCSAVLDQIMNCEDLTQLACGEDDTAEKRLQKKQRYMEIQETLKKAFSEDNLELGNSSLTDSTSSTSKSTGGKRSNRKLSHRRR
structure (smiles),measurement,setting,value
"O=C(O)c1ccccc1O [SA, Salicylic acid]",binding of SA to NPR1 coupled to a solid phase,NPR1 [1],not above that observed with a solid phase containing no protein
same,amount of SA bound to NPR1 above a no-protein experiment,NPR1 [2],~4 orders of magnitude
same,maximum binding (Bmax),NPR1 [2]; saturation binding,0.96±0.01 mol SA per mol NPR1
same,conformation of NPR1 (S300 elution profile),"NPR1 [3]; 1 mM SA, catechol, 4-hydroxy benzoic acid or methyl-salicylate, 30 min, DTT concentration not given",redistributed to the included volume
same,SA-induced NPR1 conformation change after metal chelation,"NPR1 [3]; 50 mM EDTA 30 min, then 1 mM SA 30 min",abolished the NPR1 conformation change
same,stoichiometry of Δ513 after SA treatment (S100),Δ513,consistent with that of a dimer
same,transcription activity of Δ513 co-expressed with BTB/POZ in SA-treated cells,[4],unaffected by the BTB/POZ
same,BTB/POZ-Δ513 interaction in pull-down,BTB/POZ-Δ513 interaction [5],disrupted
same,BTB/POZ-Δ513 interaction in plant two-hybrid,BTB/POZ-Δ513 interaction [6],disrupts the BTB/POZ-Δ513 association
